In US9012443B2 (Amgen Inc., priority 2011, dated 2015):
Like-named read-outs stand apart in the source and are kept apart here.

Key:
Assay type in all cases: cell-based
Nav 1.7 [1] = target: T1, Nav 1.7 (Homo sapiens (Human), UniProt Q15858); assay: Nav 1.7 in vitro PX assay (PatchXpress whole cell voltage clamp); conditions: 293 cells, human Nav1.7, partially inactivated state; read-out: Nav1.7 PX IC50 IP
In short: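 Partially inactivated channel state (holding potential for 20–50% inactivation) probed in human Nav1.7-transfected 293 cells by automated patch clamp, test pulse −10 mV for 20 msec.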

Nav 1.5 = Nav 1.5 (Homo sapiens (Human), UniProt Q14524); assay: Nav 1.5 in vitro PX assay (PatchXpress whole cell voltage clamp); conditions: 293 cells stably transfected with Nav 1.5
Description: Nav 1.5 In Vitro PX Assay
293 cells stably transfected with Nav 1.5 were recorded in whole cell voltage clamp mode with the PatchXpress automated electrophysiology system according the manufacturer's specifications (Molecular Devices, LLC, Sunnyvale, Calif.). Cells were held at a holding potential of −50 mV to inactivate sodium channels. To elicit sodium currents the voltage was changed to −120 mV to recover a portion of the channels, followed by delivery of test pulses of 20 msec duration to 0 mV, at 0.1 Hz. A single concentration of test compound was applied to cells for a duration of 5 minutes. Peak sodium current was measured at the end of the compound addition period to determine percent inhibition. A minimum of two cells were tested per concentration. IC50 curves were fitted to percent inhibition as a function of concentration.

Nav 1.7 [2] = target: T1, Nav 1.7; assay: Nav 1.7 IWQ in vitro assay (IonWorks Quattro population patch-clamp); conditions: 293 cells stably transfected with Nav 1.7; second part of table; read-out: Nav1.7 IWQ IC50 IP
In short: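 Percent block, measured in duplicate, came from peak minus end-of-pulse current on the 26th −20 mV step, and IC50 was fitted against concentration. Stably transfected 293 cells were recorded in population patch-clamp mode before and after a single test concentration, which was added over 3–8 min while cells were unclamped.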

[3] = second part of table, read-out: Nav1.5 PX IC50
[4] = first part of table, read-out: Nav 1.5 PX IC50

Sequence of Nav 1.5 (Q14524 whole entry): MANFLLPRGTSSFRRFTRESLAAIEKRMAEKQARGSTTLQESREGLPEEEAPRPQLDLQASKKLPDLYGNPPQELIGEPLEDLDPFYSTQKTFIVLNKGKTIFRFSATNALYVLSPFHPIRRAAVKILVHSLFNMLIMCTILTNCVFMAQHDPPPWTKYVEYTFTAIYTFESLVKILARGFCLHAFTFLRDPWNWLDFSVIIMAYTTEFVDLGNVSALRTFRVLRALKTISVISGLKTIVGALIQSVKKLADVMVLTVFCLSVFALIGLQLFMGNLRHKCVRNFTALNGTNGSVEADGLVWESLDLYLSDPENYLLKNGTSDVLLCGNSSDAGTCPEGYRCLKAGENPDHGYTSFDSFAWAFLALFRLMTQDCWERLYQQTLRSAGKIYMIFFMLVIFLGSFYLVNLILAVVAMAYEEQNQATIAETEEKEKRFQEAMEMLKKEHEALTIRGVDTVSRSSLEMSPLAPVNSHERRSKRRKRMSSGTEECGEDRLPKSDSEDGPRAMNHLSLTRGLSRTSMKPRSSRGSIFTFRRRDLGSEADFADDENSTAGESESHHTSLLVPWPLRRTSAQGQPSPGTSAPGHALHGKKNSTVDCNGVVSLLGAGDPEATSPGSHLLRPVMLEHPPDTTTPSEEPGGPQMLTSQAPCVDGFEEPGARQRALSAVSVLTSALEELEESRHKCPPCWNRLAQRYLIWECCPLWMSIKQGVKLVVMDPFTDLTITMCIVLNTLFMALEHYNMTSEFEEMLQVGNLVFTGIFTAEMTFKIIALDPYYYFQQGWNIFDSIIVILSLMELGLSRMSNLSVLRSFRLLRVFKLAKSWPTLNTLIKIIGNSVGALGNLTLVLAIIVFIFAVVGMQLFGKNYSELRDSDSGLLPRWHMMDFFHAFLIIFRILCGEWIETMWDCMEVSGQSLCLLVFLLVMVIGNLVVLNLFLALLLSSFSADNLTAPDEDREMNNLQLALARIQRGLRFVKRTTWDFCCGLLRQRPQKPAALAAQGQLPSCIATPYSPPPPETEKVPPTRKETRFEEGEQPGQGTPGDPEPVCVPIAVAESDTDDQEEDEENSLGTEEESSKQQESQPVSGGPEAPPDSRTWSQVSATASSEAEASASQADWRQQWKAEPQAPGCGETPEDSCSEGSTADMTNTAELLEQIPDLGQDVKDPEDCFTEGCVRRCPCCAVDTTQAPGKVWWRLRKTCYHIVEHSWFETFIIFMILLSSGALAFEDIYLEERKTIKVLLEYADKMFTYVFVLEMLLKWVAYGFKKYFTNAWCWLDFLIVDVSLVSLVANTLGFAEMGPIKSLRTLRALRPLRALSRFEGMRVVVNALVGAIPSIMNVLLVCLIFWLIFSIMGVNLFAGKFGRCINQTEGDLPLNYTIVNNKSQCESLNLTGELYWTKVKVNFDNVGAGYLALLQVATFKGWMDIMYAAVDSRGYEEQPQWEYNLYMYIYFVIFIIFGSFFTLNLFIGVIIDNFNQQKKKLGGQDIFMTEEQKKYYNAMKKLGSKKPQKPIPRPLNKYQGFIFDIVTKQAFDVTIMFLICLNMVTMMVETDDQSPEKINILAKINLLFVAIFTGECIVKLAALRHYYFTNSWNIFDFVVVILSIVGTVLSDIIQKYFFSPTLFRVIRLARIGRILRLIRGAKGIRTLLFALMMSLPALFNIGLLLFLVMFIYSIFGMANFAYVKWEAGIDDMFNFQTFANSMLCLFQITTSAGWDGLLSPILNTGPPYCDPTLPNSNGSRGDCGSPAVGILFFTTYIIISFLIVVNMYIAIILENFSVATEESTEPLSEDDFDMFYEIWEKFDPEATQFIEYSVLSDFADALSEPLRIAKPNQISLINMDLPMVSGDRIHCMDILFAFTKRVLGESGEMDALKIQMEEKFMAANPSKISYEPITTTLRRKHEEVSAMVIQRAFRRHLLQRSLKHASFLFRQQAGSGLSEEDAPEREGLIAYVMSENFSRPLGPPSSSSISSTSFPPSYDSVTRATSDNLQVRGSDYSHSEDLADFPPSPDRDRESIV
T1 sequence (Q15858 whole entry): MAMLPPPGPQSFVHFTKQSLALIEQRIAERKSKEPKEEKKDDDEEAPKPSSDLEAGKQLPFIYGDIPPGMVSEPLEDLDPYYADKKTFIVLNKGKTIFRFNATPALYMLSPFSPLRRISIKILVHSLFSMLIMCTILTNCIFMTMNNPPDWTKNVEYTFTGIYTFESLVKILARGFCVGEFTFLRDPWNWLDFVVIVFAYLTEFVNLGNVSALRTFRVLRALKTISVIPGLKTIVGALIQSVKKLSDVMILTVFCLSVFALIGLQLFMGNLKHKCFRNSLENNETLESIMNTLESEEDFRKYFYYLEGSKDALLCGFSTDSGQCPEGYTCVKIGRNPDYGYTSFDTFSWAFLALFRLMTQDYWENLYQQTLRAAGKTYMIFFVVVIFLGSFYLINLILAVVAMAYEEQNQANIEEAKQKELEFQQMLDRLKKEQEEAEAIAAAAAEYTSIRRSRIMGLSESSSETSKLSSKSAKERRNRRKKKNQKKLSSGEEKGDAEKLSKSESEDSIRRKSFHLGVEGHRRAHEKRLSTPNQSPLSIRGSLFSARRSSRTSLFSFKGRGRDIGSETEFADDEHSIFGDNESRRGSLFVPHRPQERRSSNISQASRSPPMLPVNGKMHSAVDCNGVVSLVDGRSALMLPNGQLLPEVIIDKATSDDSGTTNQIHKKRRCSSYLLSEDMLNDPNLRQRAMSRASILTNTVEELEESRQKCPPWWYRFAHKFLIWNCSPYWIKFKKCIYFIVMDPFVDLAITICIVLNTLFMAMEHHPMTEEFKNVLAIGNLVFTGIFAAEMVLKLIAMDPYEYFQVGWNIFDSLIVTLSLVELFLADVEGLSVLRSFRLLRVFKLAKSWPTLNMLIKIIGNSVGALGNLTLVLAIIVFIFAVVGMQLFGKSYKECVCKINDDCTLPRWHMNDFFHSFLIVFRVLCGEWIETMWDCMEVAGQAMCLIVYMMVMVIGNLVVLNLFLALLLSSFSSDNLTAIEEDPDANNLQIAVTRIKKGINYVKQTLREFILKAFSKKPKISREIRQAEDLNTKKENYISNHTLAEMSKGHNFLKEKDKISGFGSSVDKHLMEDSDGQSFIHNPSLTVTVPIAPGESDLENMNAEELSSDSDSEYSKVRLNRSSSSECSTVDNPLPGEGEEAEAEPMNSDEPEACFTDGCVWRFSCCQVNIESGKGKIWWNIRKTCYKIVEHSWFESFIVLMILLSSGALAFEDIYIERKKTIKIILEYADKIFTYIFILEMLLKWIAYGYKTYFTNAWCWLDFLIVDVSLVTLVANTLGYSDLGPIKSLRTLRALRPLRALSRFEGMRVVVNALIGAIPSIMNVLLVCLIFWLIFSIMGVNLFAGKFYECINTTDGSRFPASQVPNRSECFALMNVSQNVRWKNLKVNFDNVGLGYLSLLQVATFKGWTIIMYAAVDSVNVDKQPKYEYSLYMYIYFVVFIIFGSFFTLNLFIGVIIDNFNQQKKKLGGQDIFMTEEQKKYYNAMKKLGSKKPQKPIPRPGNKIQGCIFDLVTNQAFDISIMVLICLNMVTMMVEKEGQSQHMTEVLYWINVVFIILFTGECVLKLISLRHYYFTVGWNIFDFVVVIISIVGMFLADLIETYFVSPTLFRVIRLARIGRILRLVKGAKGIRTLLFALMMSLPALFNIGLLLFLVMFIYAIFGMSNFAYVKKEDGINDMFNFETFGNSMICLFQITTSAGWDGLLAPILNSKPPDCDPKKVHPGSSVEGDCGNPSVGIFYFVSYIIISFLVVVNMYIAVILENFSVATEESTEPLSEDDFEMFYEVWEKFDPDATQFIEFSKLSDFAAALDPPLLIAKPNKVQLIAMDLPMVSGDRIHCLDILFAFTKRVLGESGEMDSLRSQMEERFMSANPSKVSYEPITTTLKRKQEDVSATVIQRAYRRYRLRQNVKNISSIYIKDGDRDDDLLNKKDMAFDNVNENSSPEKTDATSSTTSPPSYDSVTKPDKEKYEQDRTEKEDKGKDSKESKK

## COc1cc(Cl)c(C#N)cc1-c1nccc2cc(S(=O)(=O)Nc3nncs3)ccc12 [Example 337, 1-(4-CHLORO-5-CYANO-2-METHOXYPHENYL)-N-(1,3,4-THIADIAZOL-2-YL)ISOQUINOLINE-6-SULFONAMIDE]
Nav 1.7 [1]
  IC50: 388 nM
Nav 1.5; [3]
  IC50: > 30000 nM

## O=S(=O)(Nc1ncns1)c1ccc2c(-c3ccc(Cl)cc3F)cccc2c1 [Example 35]
Nav 1.5; [4]
  IC50: 9990 nM

## O=S(=O)(Nc1ncns1)c1ccc2c(-c3ccc(C(F)(F)F)cc3)cccc2c1 [Example 37]
Nav 1.5; [4]
  IC50: 14400 nM

## O=S(=O)(Nc1ncns1)c1ccc2c(-c3ccc(Cl)cc3)cccc2c1 [Example 34]
Nav 1.5; [4]
  IC50: 5960 nM

## O=S(=O)(Nc1ncns1)c1ccc2c(-c3ccc(C(F)(F)F)cc3F)cccc2c1 [Example 36]
Nav 1.5; [4]
  IC50: 15100 nM

## Cc1cc(Cl)ccc1-c1cccc2cc(S(=O)(=O)Nc3ncns3)ccc12 [Example 33]
Nav 1.5; [4]
  IC50: 9580 nM

## COc1cc(C)ccc1-c1nccc2cc(S(=O)(=O)Nc3nccs3)ccc12 [Example 175]
Nav 1.5; [3]
  IC50: > 30000 nM

## COc1cc(Cl)ccc1-c1cccc2cc(S(=O)(=O)Nc3ncns3)ccc12 [Example 30]
Nav 1.5; [4]
  IC50: 19900 nM

## Nc1cc(Cl)ccc1-c1cccc2cc(S(=O)(=O)Nc3ncns3)ccc12 [Example 31]
Nav 1.5; [4]
  IC50: > 30000 nM

## O=S(=O)(Nc1ccncn1)c1ccc2c(OCc3nccn3Cc3ccc(Cl)cc3)nccc2c1 [Example 133, 1-((1-(4-CHLOROBENZYL)-1H-IMIDAZOL-2-YL)METHOXY)-N-(PYRIMIDIN-4-YL)ISOQUINOLINE-6-SULFONAMIDE]
Nav 1.7 [2]
  IC50: 1830 nM
Nav 1.7 [1]
  IC50: 34100 nM

## CN(Cc1ccccc1)c1cccc2cc(S(=O)(=O)Nc3ncns3)ccc12 [Example 100, 5-(benzyl(methyl)amino)-N-(1,2,4-thiadiazol-5-yl)naphthalene-2-sulfonamide]
Nav 1.7 [2]
  IC50: 290 nM
Nav 1.7 [1]
  IC50: 1460 nM

## CNc1cc2cc(S(=O)(=O)Nc3nccs3)ccc2c(-c2ccc(C(F)(F)F)cc2OC)n1 [Example 222, 1-(2-METHOXY-4-(TRIFLUOROMETHYL)PHENYL)-3-(METHYLAMINO)-N-(THIAZOL-2-YL)ISOQUINOLINE-6-SULFONAMIDE]
Nav 1.7 [2]
  IC50: 20 nM
Nav 1.7 [1]
  IC50: 905 nM

## O=S(=O)(Nc1ncc(F)s1)c1ccc2c(-c3ccc(C(F)(F)F)cc3C3=CCNCC3)cccc2c1 [Example 108]
Nav 1.7 [2]
  IC50: 170 nM
Nav 1.7 [1]
  IC50: 210 nM

## COc1cc(C(F)(F)F)ccc1-c1ncc(C#N)c2cc(S(=O)(=O)Nc3ccncn3)ccc12 [Example 242, 4-CYANO-1-(2-METHOXY-4-(TRIFLUOROMETHYL)PHENYL)-N-(PYRIMIDIN-4-YL)ISOQUINOLINE-6-SULFONAMIDE]
Nav 1.7 [2]
  IC50: 2500 nM
Nav 1.7 [1]
  IC50: 3890 nM

## COc1cc(Cl)ccc1-c1nncc2cc(S(=O)(=O)Nc3nccs3)ccc12 [Example 249, 1-(4-CHLORO-2-METHOXYPHENYL)-N-(THIAZOL-2-YL)PHTHALAZINE-6-SULFONAMIDE]
Nav 1.7 [2]
  IC50: 30 nM
Nav 1.7 [1]
  IC50: 290 nM

## COc1cc(C(F)(F)F)ccc1-c1nc(N(C)C)cc2cc(S(=O)(=O)Nc3nccs3)ccc12 [Example 223, 3-(DIMETHYLAMINO)-1-(2-METHOXY-4-(TRIFLUOROMETHYL)PHENYL)-N-(THIAZOL-2-YL)ISOQUINOLINE-6-SULFONAMIDE]
Nav 1.7 [2]
  IC50: 1100 nM
Nav 1.7 [1]
  IC50: 6520 nM

## COc1cc(C(F)(F)F)ccc1-c1nccc2cc(S(=O)(=O)Nc3ccnc(C)n3)ccc12 [Example 182, 1-(2-METHOXY-4-(TRIFLUOROMETHYL)PHENYL)-N-(2-METHYLPYRIMIDIN-4-YL)ISOQUINOLINE-6-SULFONAMIDE]
Nav 1.7 [2]
  IC50: 4260 nM
Nav 1.7 [1]
  IC50: 11700 nM

## COc1cc(C#N)ccc1-c1ncc(F)c2cc(S(=O)(=O)Nc3nccs3)ccc12 [Example 214, 1-(4-CYANO-2-METHOXYPHENYL)-4-FLUORO-N-(THIAZOL-2-YL)ISOQUINOLINE-6-SULFONAMIDE]
Nav 1.7 [2]
  IC50: 20 nM
Nav 1.7 [1]
  IC50: 211 nM

## O=S(=O)(Nc1nccs1)c1ccc2c(-c3ccc(C(F)(F)F)cc3CC(O)CO)nccc2c1 (stereo not shown) [Example 230, 1-(2-(2,3-DIHYDROXYPROPYL)-4-(TRIFLUOROMETHYL)PHENYL)-N-(THIAZOL-2-YL)ISOQUINOLINE-6-SULFONAMIDE 2,2,2-TRIFLUOROACETATE]
Nav 1.7 [2]
  IC50: 30 nM
Nav 1.7 [1]
  IC50: 590 nM

## O=S(=O)(Nc1ncns1)c1ccc2c(N3CCC[C@H]3c3ccncc3)cccc2c1 (single isomer, unassigned) [Example 89]
Nav 1.7 [2]
  IC50: 290 nM
Nav 1.7 [1]
  IC50: 2330 nM

## COc1cc(C(F)F)ccc1-c1ncnc2cc(S(=O)(=O)Nc3nccs3)ccc12 [Example 266, 4-(4-(DIFLUOROMETHYL)-2-METHOXYPHENYL)-N-(THIAZOL-2-YL)QUINAZOLINE-7-SULFONAMIDE]
Nav 1.7 [2]
  IC50: 10 nM
Nav 1.7 [1]
  IC50: 280 nM

## COc1cc(C(F)(F)F)ccc1-c1nncc2cc(S(=O)(=O)Nc3nccs3)ccc12 [Example 253, 1-(2-METHOXY-4-(TRIFLUOROMETHYL)PHENYL)-N-(THIAZOL-2-YL)PHTHALAZINE-6-SULFONAMIDE]
Nav 1.7 [2]
  IC50: 20 nM
Nav 1.7 [1]
  IC50: 340 nM

## COc1cc2cc(S(=O)(=O)Nc3nccs3)ccc2c(-c2ccc(C(F)(F)F)cc2OC)n1 [Example 221, 3-METHOXY-1-(2-METHOXY-4-(TRIFLUOROMETHYL)PHENYL)-N-(THIAZOL-2-YL)ISOQUINOLINE-6-SULFONAMIDE]
Nav 1.7 [2]
  IC50: 110 nM
Nav 1.7 [1]
  IC50: 1530 nM

## O=S(=O)(Nc1ncns1)c1ccc2c(C3CCCN3Cc3ccccc3)cccc2c1 (stereo not shown) [Example 97]
Nav 1.7 [2]
  IC50: 460 nM
Nav 1.7 [1]
  IC50: 2220 nM

## COc1ccc(C)cc1-c1nccc2cc(S(=O)(=O)Nc3ccncn3)ccc12 [Example 149]
Nav 1.7 [2]
  IC50: 60 nM
Nav 1.7 [1]
  IC50: 2400 nM

## O=S(=O)(Nc1nccs1)c1ccc2c(N3CCCC3c3ccccc3)nccc2c1 (stereo not shown) [Example 237, 1-(2-PHENYLPYRROLIDIN-1-YL)-N-(THIAZOL-2-YL)ISOQUINOLINE-6-SULFONAMIDE]
Nav 1.7 [2]
  IC50: 740 nM
Nav 1.7 [1]
  IC50: 1230 nM

## COc1ccccc1-c1nncc2cc(S(=O)(=O)Nc3nccs3)ccc12 [Example 252, 1-(2-METHOXYPHENYL)-N-(THIAZOL-2-YL)PHTHALAZINE-6-SULFONAMIDE]
Nav 1.7 [2]
  IC50: 120 nM
Nav 1.7 [1]
  IC50: 1920 nM

## COc1cc(C(F)(F)F)ccc1-c1c(N)cnc2cc(S(=O)(=O)Nc3nccs3)ccc12 [Example 283, 3-AMINO-4-(2-METHOXY-4-(TRIFLUOROMETHYL)PHENYL)-N-(THIAZOL-2-YL)QUINOLINE-7-SULFONAMIDE]
Nav 1.7 [2]
  IC50: 10 nM
Nav 1.7 [1]
  IC50: 210 nM

## COc1cc2ccccc2cc1-c1nccc2cc(S(=O)(=O)Nc3ccncn3)ccc12 [Example 155, 1-(3-METHOXYNAPHTHALEN-2-YL)-N-(PYRIMIDIN-4-YL)ISOQUINOLINE-6-SULFONAMIDE]
Nav 1.7 [2]
  IC50: 30 nM
Nav 1.7 [1]
  IC50: 1130 nM

## COc1cc(C(F)(F)F)ccc1-c1nccc2cc(S(=O)(=O)Nc3nncs3)ccc12 [Example 184, 1-(2-METHOXY-4-(TRIFLUOROMETHYL)PHENYL)-N-(1,3,4-THIADIAZOL-2-YL)ISOQUINOLINE-6-SULFONAMIDE]
Nav 1.7 [2]
  IC50: 320 nM
Nav 1.7 [1]
  IC50: 912 nM

## CN1CCC=C(c2cc(C(F)(F)F)ccc2-c2cccc3cc(S(=O)(=O)Nc4ccncn4)ccc23)C1 [Example 122]
Nav 1.7 [2]
  IC50: 40 nM
Nav 1.7 [1]
  IC50: 492 nM

## Cn1c(-c2cccc3cc(S(=O)(=O)Nc4ccncn4)ccc23)cc2cc(F)ccc21 [Example 106]
Nav 1.7 [2]
  IC50: 1600 nM
Nav 1.7 [1]
  IC50: 3840 nM

## Cc1c(-c2nccc3cc(S(=O)(=O)Nc4nccs4)ccc23)cnn1-c1ccccc1 [Example 208, 1-(5-METHYL-1-PHENYL-1H-PYRAZOL-4-YL)-N-(THIAZOL-2-YL)ISOQUINOLINE-6-SULFONAMIDE 2,2,2-TRIFLUOROACETATE]
Nav 1.7 [2]
  IC50: 2140 nM
Nav 1.7 [1]
  IC50: 27500 nM

## COc1ccccc1-c1nccc2cc(S(=O)(=O)Nc3ncns3)ccc12 [Example 194, 1-(2-METHOXYPHENYL)-N-(1,2,4-THIADIAZOL-5-YL)ISOQUINOLINE-6-SULFONAMIDE]
Nav 1.7 [2]
  IC50: 10 nM
Nav 1.7 [1]
  IC50: 255 nM

## O=S(=O)(Nc1nccs1)c1ccc2c(N3CCC[C@@H]3c3ccccc3)nccc2c1 [Example 238, (R)-1-(2-phenylpyrrolidin-1-yl)-N-(thiazol-2-yl)isoquinoline-6-sulfonamide]
Nav 1.7 [2]
  IC50: 140 nM
Nav 1.7 [1]
  IC50: 770 nM

## COc1cc(C(F)(F)F)ccc1-c1ncnc2cc(S(=O)(=O)Nc3nncs3)ccc12 [Example 268, 4-(2-METHOXY-4-(TRIFLUOROMETHYL)PHENYL)-N-(1,3,4-THIADIAZOL-2-YL)QUINAZOLINE-7-SULFONAMIDE]
Nav 1.7 [2]
  IC50: 1100 nM
Nav 1.7 [1]
  IC50: 2520 nM

## COc1ccccc1-c1nncc2cc(S(=O)(=O)Nc3ncc(F)s3)ccc12 [Example 258]
Nav 1.7 [2]
  IC50: 260 nM
Nav 1.7 [1]
  IC50: 1050 nM

## COc1ccc(OC)c(-c2nccc3cc(S(=O)(=O)Nc4ccncn4)ccc23)c1 [Example 147, 1-(2,5-DIMETHOXYPHENYL)-N-(PYRIMIDIN-4-YL)ISOQUINOLINE-6-SULFONAMIDE]
Nav 1.7 [2]
  IC50: 130 nM
Nav 1.7 [1]
  IC50: 5820 nM

## COc1cc(C(F)(F)F)ccc1-c1ncnc2cc(S(=O)(=O)Nc3ncns3)ccc12 [Example 265, 4-(2-METHOXY-4-(TRIFLUOROMETHYL)PHENYL)-N-(1,2,4-THIADIAZOL-5-YL)QUINAZOLINE-7-SULFONAMIDE]
Nav 1.7 [2]
  IC50: 20 nM
Nav 1.7 [1]
  IC50: 150 nM
